The text below walks through data of ChEMBL document CHEMBL3244021, “Structure and biological activity of (-)-[3H]dihydroalprenolol, a radioligand for studies of beta-adrenergic receptors” (J Med Chem, 1977).

Molecules are shown by their SMILES.

The Kd is the equilibrium constant for the complex coming apart.

Series [1] in a line: Antagonist activity at beta adrenergic receptor in frog erythrocyte membrane assessed as inhibition of (-)-isoproterenol-stimulated adenylate cyclase activity measured as [32P]-cAMP level. Type of series: cell membranes, Anura. Background: Changes in cAMP serve as a functional read-out for many G protein-coupled receptors.
Series [2] is described as follows: Displacement of (-)-[3H]dihydroalprenolol from beta adrenergic receptor in frog erythrocyte membrane after 10 mins by liquid scintillation counting analysis. Type of series: cell membranes, Anura.
Series [3] is described as follows: Stability of the compound. Type of series: physicochemical.
Series [4] is described as follows: Binding affinity to beta adrenergic receptor in frog erythrocyte membrane after 10 mins by liquid scintillation counting analysis. Type of series: cell membranes, Anura.

Take `C=CCc1ccccc1OCC(O)CNC(C)C` (configuration not stated): the Kd turned out to be 4 nM in series [1] and 2.5 nM in series [2].
As to `[3H]C([3H])([3H])C([3H])([3H])Cc1ccccc1OCC(O)CNC(C)C` (single isomer, unassigned; (-)), the figures for the dissociation constant (Kd) in series [1] and in series [4] were 4 nM and 3 nM, respectively. Further, in series [3], the Stability entry was “Stable”.
As to `CCCc1ccccc1OCC(O)CNC(C)C` (single isomer, unassigned; (-)), the equilibrium dissociation constant (Kd) in series [1] is 4 nM; in series [2] it was 2.5 nM.
